From BindingDB's records for patent US12054475 (Kayothera, 2024)
pIC50: −log10 of the molar value.

Experiments:
Retinal dehydrogenase 2 [1] = biological target: T1, Retinal dehydrogenase 2 (Homo sapiens, UniProt O94788); assay: Aldh1a2 Enzyme Inhibition Assay
T1 sequence (O94788 whole entry): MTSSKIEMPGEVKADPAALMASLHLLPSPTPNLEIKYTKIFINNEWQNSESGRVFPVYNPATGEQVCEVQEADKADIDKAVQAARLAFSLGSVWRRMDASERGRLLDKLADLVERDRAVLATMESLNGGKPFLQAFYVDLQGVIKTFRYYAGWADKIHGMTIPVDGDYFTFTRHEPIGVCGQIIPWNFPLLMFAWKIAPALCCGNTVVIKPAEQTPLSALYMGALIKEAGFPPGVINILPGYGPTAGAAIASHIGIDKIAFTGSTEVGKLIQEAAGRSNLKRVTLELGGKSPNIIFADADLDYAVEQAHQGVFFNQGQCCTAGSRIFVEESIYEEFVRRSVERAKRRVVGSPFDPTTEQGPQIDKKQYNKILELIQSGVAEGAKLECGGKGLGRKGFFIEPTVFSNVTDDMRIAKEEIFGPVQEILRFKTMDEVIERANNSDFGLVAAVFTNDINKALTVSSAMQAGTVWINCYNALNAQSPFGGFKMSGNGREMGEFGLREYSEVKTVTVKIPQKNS

Retinal dehydrogenase 2 [2] = biological target: T2, Retinal dehydrogenase 2 (UniProt Q62148); assay: Aldh1a2 Enzyme Inhibition Assay
T2 sequence (Q62148 whole entry): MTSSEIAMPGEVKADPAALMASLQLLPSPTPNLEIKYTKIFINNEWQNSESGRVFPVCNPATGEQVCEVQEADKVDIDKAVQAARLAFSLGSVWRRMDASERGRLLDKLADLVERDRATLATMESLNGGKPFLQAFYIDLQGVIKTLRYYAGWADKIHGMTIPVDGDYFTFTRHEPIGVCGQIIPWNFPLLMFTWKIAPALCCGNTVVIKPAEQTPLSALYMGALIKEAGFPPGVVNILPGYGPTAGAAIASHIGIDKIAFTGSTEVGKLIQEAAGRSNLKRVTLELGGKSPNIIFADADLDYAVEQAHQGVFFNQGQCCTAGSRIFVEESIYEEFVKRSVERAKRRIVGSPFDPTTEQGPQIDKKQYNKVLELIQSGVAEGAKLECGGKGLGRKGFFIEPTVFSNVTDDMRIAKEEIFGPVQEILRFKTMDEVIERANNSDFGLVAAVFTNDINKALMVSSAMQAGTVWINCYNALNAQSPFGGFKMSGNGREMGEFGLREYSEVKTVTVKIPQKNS

Structure (SMILES): CCC1COCCN1C(=O)Nc1cc(C)c2c(c1)CCC(=O)N2 (racemic) [US12054475, Compound 193]
- pIC50 (Retinal dehydrogenase 2 [1]): < 5.00
- pIC50 (Retinal dehydrogenase 2 [2]): < 5.00
